Source: patent publication US7385027B2, “Membrane-permeable peptide capable of calpain inhibition” (University of Kentucky Research Foundation, priority 2003, dated 2008)

Columns and labels:
[1] = tested on: cultured cortical neurons from rat brains; test: Ionomycin-induced cell death of cultured cortical neurons (calcein AM / propidium iodide); assay type: cell-based
Excerpt: (§1) In the first experiment, cell death of the neurons was induced by exposing the culture to ionomycin. In the second experiment, cell death was induced by exposing the neurons to 30 and 60 mJ/cm^2 of UV light. The exposure to either ionomycin or UV light caused calpain I to be activated because of ionomycin-mediated calcium flux or through UV-induced receptors, channels or pore-like structures. Calcein acetoxymethyl ester was used as indicator of live neuron cells while propidium iodide was used an indicator of dead neuron cells.
In the first experiment, ten Samples were prepared. Sample 1 was a control Sample and included the cultured cortical neurons only. A baseline for the average percentage of cell death was determined to be 19%. In Sample 2, 0.4 μM ionomycin was added to the cultured neuron cells to activate calpain I. No LSEAL was added to these Samples. The addition of ionomycin to these Samples caused the percentage of dead cells to more than triple to an average of 68%. Sample 3 was the same as Sample 2 except that 0.00001 micromolar of LSEAL was added before the ionomycin was added. The percentage of dead cells averaged of 106% of no LSEAL. Sample 4 was the same as Sample 3 except that 0.0001 micromolar of LSEAL was added. The percentage of cell death was 83% of no LSEAL. Sample 5 was the same as Sample 4 except that 0.001 micromolar LSEAL was added. The percentage of cell death was 63% of no LSEAL. Sample 6 was the same as Sample 5 except that 0.01 micromolar LSEAL was added. The percentage of cell death was 61% of no LSEAL. Sample 7 was the same as Sample 6 except that 0.1 micromolar LSEAL was added. The percentage of cell death was 57% of no LSEAL. Sample 8 was the same as Sample 7 except that 1.0 micromolar LSEAL was added. The percentage of cell death was 48% of no LSEAL. Sample 9 was the same as Sample 8 except that 10.0 micromolar LSEAL was added. The percentage of cell death was 35% of no LSEAL. Sample 10 was the same as Sample 9 except that 100 micromolar LSEAL was added. The percentage of cell death was 33% of no LSEAL. […] The results are summarized in Table 1 below and the results are graphically illustrated in FIG. 1

calpain I = target: T1, calpain I (Homo sapiens, UniProt P07384); test: Tau protein degradation by calpain I; assay type: biochemical; conditions: 100 μM LSEAL; FIG. 3
T1 sequence (P07384 1-714): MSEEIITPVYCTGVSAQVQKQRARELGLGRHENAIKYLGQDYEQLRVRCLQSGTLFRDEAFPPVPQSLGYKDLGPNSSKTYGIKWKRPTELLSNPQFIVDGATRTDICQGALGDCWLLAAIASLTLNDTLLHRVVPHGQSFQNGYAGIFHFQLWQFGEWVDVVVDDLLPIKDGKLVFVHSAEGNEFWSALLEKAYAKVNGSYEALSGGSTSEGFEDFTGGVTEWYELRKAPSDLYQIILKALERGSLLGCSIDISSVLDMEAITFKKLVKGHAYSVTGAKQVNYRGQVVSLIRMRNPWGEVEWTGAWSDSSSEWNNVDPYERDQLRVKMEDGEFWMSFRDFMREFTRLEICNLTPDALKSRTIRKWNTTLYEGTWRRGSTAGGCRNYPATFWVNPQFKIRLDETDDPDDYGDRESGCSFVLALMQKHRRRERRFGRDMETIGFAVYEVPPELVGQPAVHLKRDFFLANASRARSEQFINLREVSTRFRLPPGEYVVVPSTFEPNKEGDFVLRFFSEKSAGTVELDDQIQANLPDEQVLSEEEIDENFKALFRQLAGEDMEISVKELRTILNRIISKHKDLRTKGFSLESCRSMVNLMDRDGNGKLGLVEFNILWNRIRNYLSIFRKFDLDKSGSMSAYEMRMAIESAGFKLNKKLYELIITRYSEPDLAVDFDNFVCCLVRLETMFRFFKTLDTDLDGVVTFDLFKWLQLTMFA
T1 sequence (P04632 1-268 partner): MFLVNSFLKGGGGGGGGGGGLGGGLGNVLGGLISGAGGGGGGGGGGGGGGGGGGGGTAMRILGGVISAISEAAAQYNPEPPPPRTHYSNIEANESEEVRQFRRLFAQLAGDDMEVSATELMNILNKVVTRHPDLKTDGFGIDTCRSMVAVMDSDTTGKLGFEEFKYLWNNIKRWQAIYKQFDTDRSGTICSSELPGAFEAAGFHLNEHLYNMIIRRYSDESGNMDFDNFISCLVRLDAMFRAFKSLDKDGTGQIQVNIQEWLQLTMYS
Procedure: Another experiment was conducted to show the effect of the proteins of the present invention on the tau protein. The tau protein is a microtubule-associated protein (MAP). Tau is a well-described calpain I substrate.

[2] = tested on: cultured cortical neurons from rat brains; test: UV light-induced cell death of cultured cortical neurons; assay type: cell-based; conditions: for Dead Cells / Live Cells: cell count
Excerpt: as §1
In the second experiment, cell death of the cultured cortical neurons was induced by UV light. […] The percentage of cell death was 18%. Sample 14 is the same as Sample 11, except for the addition of 100 μM LSEAL to the culture. The percentage of cell death was reduced from 18% to 14%. Sample 12 was exposed to 30 mJ/cm^2 of UV light. The percentage of cell death was 58%. The inclusion of the LSEAL before exposure reduced the percentage of cell death to 25%. See Sample 15. […] The data for the experiment is set forth below in Tables 3 and 4, and is graphically illustrated in FIG. 2.

[3] = 0 mJ/cm^2 UV light, LSEAL (Sample 14)
[4] = 30 mJ/cm^2 UV light, LSEAL (Sample 15)
[5] = 60 mJ/cm^2 UV light, LSEAL (Sample 16)

Leu-Ser-Glu-Ala-Leu (LSEAL; listed as Homo sapiens)
Percentage Average cell death (ratioed to 0 LSEAL) ([1]; 0.00001 micromolar LSEAL added before 0.4 μM ionomycin (Sample 3)): 106% | Percentage Average cell death (ratioed to 0 LSEAL) ([1]; 0.0001 micromolar LSEAL, 0.4 μM ionomycin (Sample 4)): 83% | Percentage Average cell death (ratioed to 0 LSEAL) ([1]; 0.001 micromolar LSEAL, 0.4 μM ionomycin (Sample 5)): 63% | Percentage Average cell death (ratioed to 0 LSEAL) ([1]; 0.01 micromolar LSEAL, 0.4 μM ionomycin (Sample 6)): 61% | Percentage Average cell death (ratioed to 0 LSEAL) ([1]; 0.1 micromolar LSEAL, 0.4 μM ionomycin (Sample 7)): 57% | Percentage Average cell death (ratioed to 0 LSEAL) ([1]; 1.0 micromolar LSEAL, 0.4 μM ionomycin (Sample 8)): 48% | Percentage Average cell death (ratioed to 0 LSEAL) ([1]; 10.0 micromolar LSEAL, 0.4 μM ionomycin (Sample 9)): 35% | Percentage Average cell death (ratioed to 0 LSEAL) ([1]; 100 micromolar LSEAL, 0.4 μM ionomycin (Sample 10)): 33% | Effect on tau degradation by calpain I (calpain I): inhibits degradation | % Dead Cells ([2]; 0 mJ/cm^2 UV light, 100 μM LSEAL (Sample 14), control without LSEAL 18%): 14% | Dead Cells [2, 3]: 5 | Live Cells [2, 3]: 30 | Dead Cells [2, 4]: 26 | Live Cells [2, 4]: 78 | % Dead Cells ([2]; 30 mJ/cm^2 UV light, LSEAL included before exposure (Sample 15), control without LSEAL 58%): 25% | Dead Cells [2, 5]: 25 | Live Cells [2, 5]: 56 | % Dead Cells ([2]; 60 mJ/cm^2 UV light, culture containing LSEAL (Sample 16), control without LSEAL 74%): 30%
